Data set [1] can be described thus: Drug loading into PBAE microparticles (loading efficiency, surface vs bulk drug). In kind it is physicochemical. Conditions: pre-loaded; 100 mg/mL drug solution. As to the method:
FIG. 6A graphically represents the processing method for creating PBAE microparticles, as well as the differences between pre- and post-loaded particles. […] This ratio allowed particles to swell without excess solution remaining, and expected drug loads were calculated under the assumption that all drug solution was imbibed by the microparticles. Particles were lyophilized overnight, briefly re-ground and sieved to break up aggregates, and stored in a vacuum chamber with desiccant. […] Drug-loaded PBAE slabs were ground with 75 wt % HA into particles and stored in a vacuum chamber with desiccant. Predicted values for drug loading using the pre-loading method were obtained by calculating swelling of PBAE in solution based on mass increase and assuming drug was homogeneously present in swollen hydrogels as well as surrounding solution. […] The mixtures containing ethanol and swollen PBAE microparticles were then centrifuged, and supernatants were analyzed using HPLC to detect simvastatin, as described below. Clodronate loading was measured with an identical technique using 50% ethanol, and was detected by absorbance as described below. […] Drug detected in the initial wash was deemed loosely bound to the surface of particles, while drug detected after the 24 hour soak was determined to be imbibed into the bulk of the particles.

A short description of data set [2]: In vitro drug release from in situ forming PLGA scaffolds in PBS (Example 1). In kind it is physicochemical. The following applies: for burst release within one day: freely mixed. The procedure:
PLGA was added to NMP and stirred overnight until fully dissolved to create a 20 wt/wt % PLGA solution. […] HA was also mixed homogeneously prior to injection to bring the final mixture to 30 wt % HA. Clodronate-loaded PBAE microparticles pre-loaded with 50 mg/mL clodronate were added using an identical technique. […] FIG. 6B illustrates the differences between the proposed system and a traditional injectable system. Simvastatin and clodronate were measured as described below.
The scaffold mixture was injected dropwise through a 16 gauge, blunt-tipped dispensing needle into PBS at 5% wt/vol. Upon contacting PBS, surface PLGA immediately began to precipitate, forming semi-spherical scaffolds approximately 3 mm in diameter that sank to the bottom of the vial. Samples were kept in an incubator at 37° C. on a plate shaker for the duration of the study. Supernatant was collected and replaced at each time point, and these samples were preserved at 4° C. until analysis. Clodronate release was measured for three loading conditions: freely mixed clodronate without HA filler, freely mixed clodronate with HA filler, and clodronate pre-loaded into PBAE microparticles with HA filler. Because PBAE microparticles were fabricated with HA as a dispersing agent, drug release from loaded particles was not investigated without HA filler. Simvastatin release was measured for three loading conditions: freely mixed simvastatin without HA filler, freely mixed simvastatin with HA filler, and simvastatin pre-loaded into PBAE microparticles with HA filler.
Clodronate from collected supernatants were measured using a Powerwave HT (Biotek; Winooski, Vt., USA). In vitro release supernatant was pipetted into a UV-grade 96-well plate (Greiner Bio-One, Frickenhausen, Germany), and baseline absorbance was measured at 240 nm.
Drug release from polymeric systems is often analyzed using an adaptation of the Higuchi model by Peppas et al., widely known as the power law, to characterize release kinetics (Siepmann J, Peppas N A. Modeling of drug release from delivery systems based on hydroxypropyl methylcellulose (HPMC). Advanced Drug Delivery Reviews 2001; 48:139-57):
[formula] represents Tractional release or drug at time t, k is a constant encompassing scaffold and drug properties, and it is the release exponent used to characterize drug release. In the case of the spherical geometry (consistent with scaffolds formed via dropwise injection), n=0.43 corresponds to pure Fickian diffusion, n=0.85 corresponds to pure case II (polymer relaxation-based) transport, and values in between are combinations of the two, termed anomalous transport (Siepmann J, Peppas N A. Modeling of drug release from delivery systems based on hydroxypropyl methylcellulose (HPMC). Advanced Drug Delivery Reviews 2001; 48:139-57). Plots of
[formula] so release data were truncated to below 60% cumulative release when calculating n. Mass Loss and Degradation

The source of these data is patent US10682442B2, “Small molecule drug release from in situ forming degradable scaffolds incorporating hydrogels and bioceramic microparticles” (University of Kentucky Research Foundation, priority 2014, dated 2020).

Molecules are shown by their SMILES. Values after ≈ are worked out from the molar mass of the structure shown. Bounds are passed on as bounds.

With `O=P(O)(O)C(Cl)(Cl)P(=O)(O)O` [clodronate], in data set [1], the loading efficiency came out at 59%. Moreover, the release rate turned out to be 3 %/day in data set [2] (all loading conditions, day 20 through day 31); 0.6 %/day in data set [2] (freely mixed without HA, through day 19); 1.3 %/day in data set [2] (mixed with HA, through day 19); 1.3 %/day in data set [2] (pre-loaded into microparticles, through day 19). Further, the entries for the “burst release within one day” value in data set [2] (with HA filler) and in data set [2] (without HA) were 32% and 49%, respectively. The “release exponent n (power law)” value in data set [2] (pre-loaded drug, initial release during burst (first day)) was 0.49. For the same compound, the “1 day burst release” value in data set [2] (pre-loaded into PBAE microparticles, with HA filler) was found to be 32%. Moreover, the results for the solubility in the data set “physchem” (aqueous with cosolvent or surfactant or cyclodextrin) and in “physchem” (water) were 20 mg/mL (≈ 81.7 mM) and not below 100 mg/mL, respectively.
